This assay has as its target T1, Anthranilate phosphoribosyltransferase (Mycobacterium tuberculosis (strain CDC 1551 / Oshkosh), UniProt P9WFX4).
T1 sequence (P9WFX4 whole entry): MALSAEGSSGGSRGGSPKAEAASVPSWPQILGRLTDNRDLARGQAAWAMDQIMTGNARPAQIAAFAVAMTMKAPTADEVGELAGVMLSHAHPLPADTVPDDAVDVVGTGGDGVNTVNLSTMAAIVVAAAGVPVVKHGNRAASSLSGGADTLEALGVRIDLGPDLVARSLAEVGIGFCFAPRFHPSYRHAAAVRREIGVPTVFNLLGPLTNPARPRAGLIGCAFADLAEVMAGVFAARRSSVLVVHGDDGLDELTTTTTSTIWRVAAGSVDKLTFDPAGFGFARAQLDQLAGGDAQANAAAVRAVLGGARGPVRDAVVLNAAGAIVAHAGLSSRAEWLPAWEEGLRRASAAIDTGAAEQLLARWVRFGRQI
Briefly: Fluoresence-based Assay.

Description: An enzyme-coupled absorbance-based assay developed in house was used to determine the inhibitor-enzyme kinetic parameters of Mtb-AnPRT, including ki values for the inhibitors.

The term Ki denotes the equilibrium dissociation constant of an inhibitor or competing ligand from its target. Low readings indicate higher affinity, high ones lower affinity. Compound `COc1ccc(C(=O)O)cc1N` [ACS No 126] had a Ki of 60 µM. For `NC(CCCNc1ccc([N+](=O)[O-])cc1[N+](=O)[O-])CC(=O)O` (configuration not stated) [ACS No 165], the Ki was 79 µM.

The record behind these values is BindingDB's records for doi:10.1021/bi301387m (University of Auckland, 2013).
